# Data reported in patent publication US20160271100A1, “METHOD FOR TREATING TUMORS AND RADIOTHERAPY- AND CHEMOTHERAPY-[…] OR EMOTIONAL […] CANNABINOIDS” (GLIA LLC, priority 2014, published 2016).
# Tests used:
# glioblastoma = assay: Course of glioblastoma (MRI/PET) under chemotherapy with or without topical dronabinol (same patient); type: in vivo, human; conditions: for adverse effects that led to discontinuation of chemotherapy: patient with glioblastoma
# Method: By way of reminder, the patient described in the two examples set forth above was diagnosed with glioblastoma in February 2010. Approximately 95% of the tumor was surgically removed within 3 days of diagnosis. Following the surgery, the patient was treated with radiation, as well as by chemotherapy with a combination of temozolamide, topotecan, and bevacizumab. […] In May of 2011, the combination therapy was discontinued and the patient received only maintenance bevacizumab. MRI scans were performed every two months to monitor any changes in the brain.
# The patient resumed chemotherapy with a combination of temozolamide, etoposide, and bevacizumab. […] The chemotherapy regimen was changed to carboplatin, irinotecan, together with bevacizumab.
# As mentioned above, the patient was treated with 2.5 mg topical dronabinol beginning in December 2012 and continuing to the present.
# On Mar. 19, 2014, a further increase in size of the tumor was noted. The secondary tumor was unchanged.
# In early April 2014, the patient was again treated with temozolamide and bevacizumab.
# [1] = test system: chemo brain and brain fog; assay: Low dose topical dronabinol for chemo brain and brain fog induced by short-term chemotherapy (same patient)
# Method: The patient was treated again with temozolamide, and bevacizumab.
# Each morning, the patient was treated with dronabinol as described in Example 1 supra.
# [2] = test system: chemo brain and brain fog (chemotherapy-associated cognitive or emotional impairment); assay: Daily low-dose topical dronabinol for chemo brain and brain fog induced by long term chemotherapy and radiation (single patient); conditions: 2.5 mg daily applied to forehead
# Method: A person was diagnosed with glioblastoma in February 2010 and underwent immediate surgery to remove the tumor. Within 6 weeks of the surgery, they began radiotherapy and chemotherapy with a combination of temozolamide, topotecan, and bevacizumab.
# Beginning in December of 2012 and continuing through March of 2014, the patient, who was not undergoing any chemotherapy at this time, was treated daily with 2.5 mg of dronabinol applied to their forehead. Daily evaluation by their caretaker and quarterly evaluations by a medical institution were documented during this treatment period.
# glioblastoma tumor = conditions: one human study; cited from earlier work
compound,measurement,setting,value
Bevacizumab: chemotherapy agent,adverse effects that led to discontinuation of chemotherapy,glioblastoma,hypertension and proteinuria
"CCCCCc1cc(O)c2c(c1)OC(C)(C)[C@@H]1CCC(C)=C[C@@H]21 [dronabinol, (6aR,10aR)-6a,7,8,10a-tetrahydro-6,6,9-trimethyl-3-pentyl-6H-dibenzo[b,d]-pyran-1-ol]","tumor response by MRI, chemotherapy co-administered with topical dronabinol","glioblastoma; 2.5 mg topical dronabinol continued with temozolamide and bevacizumab, MRI 6 weeks after initiation of chemotherapy",shrinkage of both the primary tumor that had regrown into the extirpated space and the secondary tumor
same,"primary tumor by MRI, topical dronabinol without chemotherapy","glioblastoma; 2.5 mg topical dronabinol, MRI December 6, 2013 and Mar. 19, 2014",increase in size of the primary tumor
same,"secondary tumor by MRI, topical dronabinol without chemotherapy","glioblastoma; 2.5 mg topical dronabinol, Mar. 19, 2014",unchanged
same,hallucinatory or adverse cognitive effects,[1]; 2.5 mg topical each morning during chemotherapy,no hallucinatory or adverse cognitive effects were observed
same,time to significant diminishment of brain fog after each dose,[1]; 2.5 mg topical each morning during temozolamide and bevacizumab chemotherapy,≤ 45 min
same,duration of the effects of administration,"[1]; 2.5 mg topical each morning, six-week period",lasted until the following morning
same,"cognitive functions, emotional skills, and social interaction skills",[2]; December 2012 to March 2014,showed daily and long term improvement
same,hallucinatory or adverse cognitive effects,[2]; December 2012 to March 2014,no hallucinatory or adverse cognitive effects were observed
same,"time to signs of improved recognition, memory, and social interaction after initiation of treatment",[2]; patient not on chemotherapy,1 to 2 days
"CCCCCc1cc(O)c2c(c1)OC(C)(C)[C@@H]1CCC(C)=C[C@@H]21 [THC, tetrahydrocannabinol]",benefit of THC instilled into a glioblastoma tumor,glioblastoma tumor,failed to demonstrate a clear-cut benefit
O=NN(CCCl)C(=O)NC1CCCCC1 [lomustine],adverse effects that led to discontinuation of chemotherapy,glioblastoma,hypertension and proteinuria
